Experimental data as given in patent publication US20170313808A1, “BIOACTIVE POLYMERIC LIQUID FORMULATIONS OF ABSORBABLE, SEGMENTED APLIPHATIC POLYURETHANE COMPOSITIONS” (priority 2008, published 2017).

Tests used:
S aureous = experiment: Antibacterial testing with S aureous; format: cell-based
SKOV3 = experiment: Testing with ovarian cancer cell lines (SKOV3); format: cell-based; details: ovarian cancer cell line SKOV3

SMILES | Additional Uses and Properties (S aureous) | Additional Uses and Properties (SKOV3)
CC(=O)O[C@H]1C(=O)[C@@]2(C)[C@H]([C@H](OC(=O)c3ccccc3)[C@]3(O)C[C@H](OC(=O)[C@H](O)[C@@H](NC(=O)c4ccccc4)c4ccccc4)C(C)=C1C3(C)C)[C@]1(OC(C)=O)CO[C@@H]1C[C@@H]2O [Paclitaxel] | Antibacterial as per testing | –
O=c1[nH]cc(F)c(=O)[nH]1 [5-Fluorouracil] | Antibacterial as per testing | –
CO[C@@]12[C@H](COC(N)=O)C3=C(C(=O)C(C)=C(N)C3=O)N1C[C@@H]1N[C@@H]12 [Mitomycin] | – | Antineoplastic, as per testing
OC(Cn1cncn1)(Cn1cncn1)c1ccc(F)cc1F [Fluconazole] | – | Antineoplastic (as per testing
Cc1oncc1C(=O)Nc1ccc(C(F)(F)F)cc1 [Leflunomide] | – | Antineoplastic, as per testing
Clc1ccc(COC(Cn2ccnc2)c2ccc(Cl)cc2Cl)c(Cl)c1 (stereo not drawn) [Miconazole] | – | Antineoplastic (as per testing
